Test results reported in article PMC2756481 (Biochemical and biophysical research communications, 2009).
Where two headings read alike, the source gives them in different places.

Columns and labels:
[1] = biological target: T1, 64 kDa MMP-2 (Homo sapiens, UniProt P08253); test: OmniMMP fluorogenic substrate kinetic assay of MMP-2 activity; type: biochemical; conditions: for IC50: 15 µM substrate; for IC50 values (range in words): substrate degradation assay, 64 kDa MMP-2
T1 sequence (P08253 110-660): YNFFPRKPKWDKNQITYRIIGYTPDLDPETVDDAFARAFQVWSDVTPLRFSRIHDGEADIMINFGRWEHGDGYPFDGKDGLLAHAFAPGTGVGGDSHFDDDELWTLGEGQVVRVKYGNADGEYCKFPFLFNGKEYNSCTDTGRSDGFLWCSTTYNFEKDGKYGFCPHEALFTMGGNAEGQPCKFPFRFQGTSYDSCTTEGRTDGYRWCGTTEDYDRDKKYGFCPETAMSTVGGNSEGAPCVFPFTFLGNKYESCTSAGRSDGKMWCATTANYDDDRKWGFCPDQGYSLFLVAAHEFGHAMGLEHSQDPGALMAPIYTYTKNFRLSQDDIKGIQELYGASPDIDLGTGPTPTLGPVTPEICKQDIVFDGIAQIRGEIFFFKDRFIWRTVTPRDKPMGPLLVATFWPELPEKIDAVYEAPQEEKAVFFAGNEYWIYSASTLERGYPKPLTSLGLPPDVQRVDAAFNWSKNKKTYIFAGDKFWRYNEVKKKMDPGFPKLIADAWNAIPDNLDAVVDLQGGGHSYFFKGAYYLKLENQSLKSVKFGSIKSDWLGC

[2] = tested on: PARP; conditions: in animal models; cited from earlier work
[3] = tested on: PARP; conditions: in vitro; cited from earlier work
[4] = biological target: T1, 64 kDa MMP-2; test: Gelatinolytic activity of MMP-2 by gelatin zymography; type: biochemical
[5] = read-out: IC50 ± SD, 10 µM ZnSO4, 50 mM Tris pH 7.6, 10 mM CaCl2, 0.05% Brij-35, 37 °C
[6] = IC50 ± SD, 1 nM ZnSO4, 50 mM Tris pH 7.6, 37 °C
[7] = IC50 ± SD, 10 µM ZnSO4, 50 mM Tris pH 7.6, 10 mM CaCl2, 0.05% Brij-35, 37 °C

With Nc1ncnc2c1ncn2[C@@H]1O[C@H](C(=O)N2CCN(CC(=O)Nc3cccc4c3CNC4=O)CC2)[C@@H](O)[C@H]1O [EB-47, 1-piperazineacetamide-4-[1-(6-amino-9H-purin-9-yl)-1-deoxy-D-ribofuranuron]-N-(2,3-dihydro-1H-isoindol-4-yl)-1-one] the IC50 [1, 5] was greater than 3000 µM and the “IC50 values (range in words)” value [1] was “millimolar range”.
In the case of NC(=O)c1cccc(N)c1 [3-AB, 3-Aminobenzamide], the “potency for PARP inhibition” value [2] is listed as “millimolar range”, the IC50 [1, 6] is listed as 1000 ± 200 µM and the IC50 [1, 7] is listed as 1760 ± 220 µM. For the same compound, the “IC50 values (range in words)” value [1] was “millimolar range” and the “potency for PARP inhibition” value [3] was “micromolar range”.
For Nc1cccc2c(=O)[nH]ccc12 [5-AIQ, 5-aminoisoquinolinone], the IC50 [1, 5] was 102 ± 34 µM and the “IC50 values (range in words)” value [1] was “high micromolar range”.
Work on c1cnc2c(c1)ccc1cccnc12 [o-Phenanthroline, o-phenanthroline] yielded an IC50 [1, 6] of 116 ± 9 µM.
With CN(C)CC(=O)Nc1ccc2[nH]c(=O)c3ccccc3c2c1 [PJ-34, 2-(dimethylamino)-N-(5,6-dihydro-6-oxophenanthridin-2-yl)acetamide] the IC50 [1, 6] was 27 ± 10 µM, the IC50 [1, 7] was 56 ± 14 µM and the “IC50 values (range in words)” value [1] was “high micromolar range”. For the same compound, the IC50 [4] was 9200 µM.
Compound C[C@H]1c2cccc(O)c2C(=O)C2=C(O)[C@]3(O)C(=O)C(C(N)=O)=C(O)[C@@H](N(C)C)[C@@H]3[C@@H](O)[C@@H]21 [Doxycycline, doxycycline] has an IC50 [1, 6] of 93 ± 12 µM and an IC50 [1, 7] of 86 ± 13 µM.
With CN(C)c1ccc(O)c2c1C[C@H]1C[C@H]3[C@H](N(C)C)C(O)=C(C(N)=O)C(=O)[C@@]3(O)C(O)=C1C2=O [Minocycline, minocycline] the IC50 [1, 7] was 57 ± 6 µM.
